Laboratory results: patent publication US6333422A, “Thermosensitive cyclotriphosphazene-platinum complex conjugate, its preparation method and anticancer agent containing the same” (Korea Institute of Science and Technology, priority 2000, dated 2001)
pIC50: −log10 of the molar value.

Experiments:
[1] = system: mouse leukemia L1210 cell line; experiment: In vitro cell growth inhibition of mouse leukemia L1210 cells (trypan blue dye exclusion); assay type: cell-based; details: viable cell number after 24, 48 and 72 hours, read-out: ED50 (concentration exhibiting 50% of cell growth inhibition)
Experimental: 1. Determination of in vitro activity
(§1) (2) Cancer cell line: mouse leukemia L1210 cell line
After adding the samples each serially diluted by logarithmic dose to the cells, cells were cultured in an incubator at 37° C. and under 5% CO2 atmosphere.
The viable cell number was determined after 24, 48 and 72 hours by using trypan blue dye exclusion test.

[2] = M. J. Cleare, Biochimie 60, 835 (1978); cited from earlier work
[3] = system: mouse leukemia L1210 cell line; experiment: In vivo (i.p.) activity: survival of BDF1 mice implanted i.p. with leukemia L1210 cells
Experimental: 2. Determination of in vivo (i.p.) activity
(1) Samples: Example 2, Example 6, Example 7 and Example 11
as §1
(3) Experimental method: The leukemia L1210 cells(1×10^5 cells/0.1 ml) obtained from DBA/2 donor mice were injected intraperitoneally to the BDF1 mice (6-8 weeks old, 8 mice per group). The samples were either dissolved in PBS solution or suspended in 0.5% Tween 80 depending on their solubility. These sample solutions were administered via intraperitoneal injection once a day for 5 consecutive days or at day 1, 5, and 9 after the cancer cell implantation at variable dosages. The survival rate was determined by observing the mice each day. By comparing with the average survival time of the control group (where no chemical treatment was performed), the percent average increase in the survival time(T/C, %) was calculated to determine the anticancer activity.

[4] = Lower critical solution temperature (LCST, cloud point) by UV/VIS spectrophotometer; assay type: physicochemical
Description: Thermosensitive polymers in the present invention refer to the polymers that can be solubilized in water at low temperatures but precipitates above a certain critical temperature due to the rapid decrease of their water-solubility. When such a phase transition is reversible, the phase transition temperature is called a lower critical solution temperature(LCST) or a cloud point. Below LCST, the hydrogen bonding between the polymer-water molecules is stronger than the hydrophobic interaction between the polymer-polymer molecules. As the temperature increases, however, the hydrogen bonding between the polymer-water molecules weakens whereas the hydrophobic interaction between the polymer-polymer molecules increases resulting in the precipitation of polymers in aqueous solution.
Elemental analysis of carbon, hydrogen, nitrogen in the compounds of the present invention was performed in the Special Analysis Center at KIST by using carbon, hydrogen and nitrogen analyzer (Perkin Elmer), and phosphorous and platinum analysis was performed using Polyscan 61E ICP. Hydrogen and phosphorous nuclear magnetic resonance spectra were obtained using Varian to Gemini-300, and LCST was measured by using Perkin-Elmer Lamda 18 UV/VIS spectrophotometer.

Compound	pIC50 [1]	Lower critical solution temperatures [4]	further results
N.N.O=C([O-])C1(C(=O)[O-])CCC1.[Pt+2] [Carboplatin, reference compound]	5.23		LD50 [2]: 180 mg/kg; T/C (survival time vs control) ([3]; dose 40 mgkg^-1): 168.0%
{NP[(OCH2 CH2)2 OC3 H7 ][L-Asp.Pt(dach)]}3 [Example 9]		22.0 °C	
N.N.[Cl][Pt][Cl] [Cisplatin, reference compound]	6.15		T/C (survival time vs control) ([3]; dose 4 mgkg^-1): 163.0%
{NP[(OCH2 CH2)2 OC2 H5 ][L-Asp.Pt(dach)]}3 [Example 7]	6.40	42.0 °C	T/C (survival time vs control) ([3]; dose 40 mgkg^-1): 200.8%; T/C (survival time vs control) ([3]; dose 60 mgkg^-1): 226.7%; T/C (survival time vs control) ([3]; dose 80 mgkg^-1): > 271.7%
{NP[(OCH2 CH2)12 OCH3 ][L-Asp.Pt(dach)]}3 [Example 12]		above 100 °C	
{NP[(OCH2 CH2)7 OCH3 ][L-Asp.Pt(dach)]}3 [Example 11]	6.70	84.0 °C	T/C (survival time vs control) ([3]; dose 30 mgkg^-1): 197.0%; T/C (survival time vs control) ([3]; dose 60 mgkg^-1): 229.2%; T/C (survival time vs control) ([3]; dose 90 mgkg^-1): 204.2%
{NP[(OCH2 CH2)2 OC2 H5 ][L-Asp.Pt(dmach)]}3 [Example 8]		35.0 °C	
{NP[(OCH2 CH2)2 OCH3 ][L-Asp.Pt(dach)]}3 [Example 2]	6.40	92.0 °C	T/C (survival time vs control) ([3]; dose 30 mgkg^-1): 217.3%; T/C (survival time vs control) ([3]; dose 60 mgkg^-1): > 293.8%; T/C (survival time vs control) ([3]; dose 90 mgkg^-1): > 511.0%
{NP[(OCH2 CH2)2 OCH3 ][L-Asp.Pt(dmach)]}3 [Example 3]		74.5 °C	
{NP[(OCH2 CH2)2 OCH3 ][L-Asp.Pt(dmpda]}3 [Example 1]		98.0 °C	
{NP[(OCH2 CH2)2 OC2 H5 ][L-Asp.Pt(dmpda)]}3 [Example 6]		46.5 °C	T/C (survival time vs control) ([3]; dose 30 mgkg^-1): 146.1%; T/C (survival time vs control) ([3]; dose 60 mgkg^-1): 162.0%
{NP[(OCH2 CH2)2 OC4 H9 ][L-Asp.Pt(dach)]}3 [Example 10]		12.0 °C	
{NP[(OCH2 CH2)2 OC2 H5 ][L-Mal.Pt(dach)]}3 [Example 5]		39.0 °C	
{NP[(OCH2 CH2)2 OCH3 ][L-Glu.Pt(dach)]}3 [Example 4]		82.0 °C	
